Test results from US20170276668A1, “NEURAL MICROPHYSIOLOGICAL SYSTEMS AND METHODS OF USING THE SAME” (The Administrators of the Tulane Educational Fund, priority 2014, published 2017).
“Also recorded” adds a separate entry of the source.

Legend:
[1] = system: DRG/Schwann cell co-culture; test: DRG/SC three-dimensional co-culture: neurite growth and myelin formation (immunohistochemistry, confocal); type: cell-based, rat
From the text: The dual hydrogel culture system was fabricated using a digital projection photolithography, as described above. A schematic of the process is seen in FIG. 13. In brief, a photolithography apparatus comprised of a collimated UV light source (OmniCure 1000 with 320-500 nm filter, EXFO, Quebec, Canada) and a visible light source (SOLA light engine with […] filter, Lumencor, Oreg., USA), a digital micromirror device (DMD) (Discovery™ 3000, Texas Instruments, Dallas, Tex.) as a dynamic photomask and a 2× Plan Fluor objective lens (Nikon Instruments, Tokyo, Japan) were utilized to irradiate the photocurable hydrogel solution that was contained in a permeable cell culture insert with 0.4 μm pore size. The inserts were either collagen-coated PTFE Transwell® Permeable Support or Transwell™ Clear Polyester Membrane Inserts (Corning Inc., Corning, N.Y., USA) to investigate the influence of collagenated substrates on SC/neuron incorporation. The dual hydrogel system consists of two compartments: a cell permissive section that contains neurons and a cell restrictive section that acts as a hydrogel mold. In order to make the cell restrictive section, a solution of 10% (w/v) PEG-diacrylate (Mn 1000; Polysciences Inc., Warrington, Pa.) and 0.5% (w/v) Irgacure 2959 in PBS was irradiated with 85 mW/cm2 UV light as measured by a radiometer (306 UV Powermeter, Optical Associates, San Jose, Calif.), for 38 seconds to make a PEG micromold, shown in FIG. 13. The cell culture insert was treated with filtered Rain-X® Original Glass Treatment (RainX, Houston, Tex.) prior to addition of the gel solution in order to avoid meniscus behavior. 0.5 ml of solution was added to each 6-well plate insert. Addition of 0.5 ml solution results in a gel thickness of 480 μm. Hydrogel constructs were washed in DPBS with 1% antibiotic-antimycotic additive to inhibit contamination.
As the first step of the co-culture, the primary tissue culture was performed. The PEG constructs were prepared and immersed in the adhesion media and incubated (37° C., 5% C02) overnight prior to the tissue culture. The adhesion media was comprised of Neurobasal medium supplemented with B27 (2% v/v), L-glutamine (0.25% v/v), nerve growth factor (NGF) (0.02 μg/ml), fetal bovine serum (FBS) (10% v/v/) and penicillin/streptomycin (1% v/v) (all from Life Technologies, CA). The constructs were then cultured with Long Evans rat embryo dorsal root ganglion (DRG) tissue, in keeping with the guidelines of the Institutional Animal Care and Use Committee. The DRGs were isolated from embryonic day 15 rat embryos and trimmed prior to the culture. A single DRG explant was placed in each construct. The DRGs were then incubated in fresh adhesion media overnight to allow the tissue to adhere to the insert
The SCs were dispersed in 50% MeDex solution in SC medium as described above to reach a cell count of 20×10^6 cell/mL. In order to achieve an evenly distributed single cell solution, the gel mixture was pipetted up and down vigorously. The adhesion medium was aspirated from the channels gently to avoid disturbing the adhered DRGs and 2 μL of the MeDex single cell solution was added to each PEG micromold. A negative photomask was loaded on the DMD and the gel solution in the channel was crosslinked with 85 mW/cm^2 visible light as measured by a radiometer (306 UV Powermeter, Optical Associates, San Jose, Calif.) after 30 seconds of irradiation using a visible light source (SOLA light engine with 375-650 nm filter, Lumencor, Oreg., USA). The constructs were gently washed using the wash buffer described above three times.
In order to understand the influence of various media regimens on the behavior of DRGs and SCs in a three-dimensional co-culture, two different culture systems were applied. The culture systems are described in Table 2. Culture System 1 has two phases where Media 1 (10 days) and 2 (15 days) are applied in that order. […]

[2] = system: DRG explants in dual hydrogel constructs; type: cell-based, rat; settings: for response duration before (t1-t5) vs after (t16-t20) drug wash-in / response amplitude before (t1-t5) vs after (t16-t20) drug wash-in: 20 μM DNQX and 50 μM APV applied together; for response duration before (t1-t5) vs after (t16-t20) drug wash-in: n=4, at half-peak; for response amplitude before (t1-t5) vs after (t16-t20) drug wash-in: n=4, peak-to-peak
[3] = system: neuronal cell death in vitro; settings: cited from earlier work
DRG neurites = test: DRG neurite growth toward a factor diffusing from a reservoir in the hydrogel construct; type: cell-based; settings: NGF vs BSA diffusing from a reservoir, FIG. 28
Retinal explants = test: Retinal explant culture in 3D micropatterned hydrogels; type: cell-based, rat; settings: neurobasal Sato medium supplemented with the factor, one week, β-III tubulin
Protocol: Work and experimental data for the dorsal root ganglia model is presented in the present disclosure. For a central nervous system model, the growth of retinal explants has also been explored. FIGS. 27A-27B depict a culture of retinal (CNS) tissue. Retinal explants from embryonic rats were cultured within 3D micropatterned hydrogels in “neurobasal Sato” medium supplemented with either ciliary neurotrophic factor CNTF ([…]) or brain-derived neurotrophic factor BDNF ([…]).

Molecule: collagen
- amount of myelin formation ([1]; 25 days, addition of collagen I and III): increased
- volume of neuronal outgrowth, cultures with vs without collagen ([1]; 25 days, collagen-coated inserts, n=15-18 constructs): significantly higher volume; also recorded: significantly more neuronal growth
- amount of MBP-positive myelin ([1]; 25 days, presence of collagen, FIG. 17B): increased
- amount of PO-positive myelin ([1]; 25 days, presence of collagen, FIG. 18B): increased

Molecule: O=C1N=c2cc([N+](=O)[O-])c([N+](=O)[O-])cc2=NC1=O [DNQX, 6,7-dinitroquinoxaline-2,3Dione]
- response duration before (t1-t5) vs after (t16-t20) drug wash-in [2]: no statistically significant difference; also recorded: no marked change
- response amplitude before (t1-t5) vs after (t16-t20) drug wash-in [2]: no statistically significant difference; also recorded: no marked change

Molecule: CC(C)C[C@H](NC(=O)[C@H](Cc1ccccc1)NC(=O)c1cnccn1)B(O)O [Bortezomib]
- Neurotoxic dose [3]: 0.02 µM

Molecule: CC[C@]1(O)C[C@H]2CN(CCc3c([nH]c4ccccc34)[C@@](C(=O)OC)(c3cc4c(cc3OC)N(C=O)[C@H]3[C@@](O)(C(=O)OC)[C@H](OC(C)=O)[C@]5(CC)C=CCN6CC[C@]43[C@@H]65)C2)C1 [Vincristine]
- Neurotoxic dose [3]: 0.1 µM

Molecule: NGF: nerve growth factor
- direction of DRG neurite growth (DRG neurites): grow preferentially toward NGF

Molecule: NC1=N[C@H](O)[C@H]2[C@H]3O[C@]4(O)O[C@@H]([C@@H](O)[C@@]2(N1)[C@@H]4O)[C@]3(O)CO [TTX, tetrodotoxin]
- average response amplitude (peak-to-peak) after wash-in [2]: 0.04 μV
- effect on CAP / population response [2]: reversibly abolished; also recorded: completely abolished; also recorded: abolishment of population response
- time to complete abolishment of responses [2]: ≤ 2 min

Molecule: N[C@H](CCCP(=O)(O)O)C(=O)O [APV, (2R)-amino-5-phosphonopentanoate]
- response duration before (t1-t5) vs after (t16-t20) drug wash-in [2]: no statistically significant difference; also recorded: no marked change
- response amplitude before (t1-t5) vs after (t16-t20) drug wash-in [2]: no statistically significant difference; also recorded: no marked change

Molecule: CC(=O)O[C@H]1C(=O)[C@@]2(C)[C@H]([C@H](OC(=O)c3ccccc3)[C@]3(O)C[C@H](OC(=O)[C@H](O)[C@@H](NC(=O)c4ccccc4)c4ccccc4)C(C)=C1C3(C)C)[C@]1(OC(C)=O)CO[C@@H]1C[C@@H]2O [Paclitaxel]
- Neurotoxic dose [3]: 0.1 µM

Molecule: O=C1O[C@H]([C@@H](O)CO)C(O)=C1O [AA, L-ascorbic acid]
- amount of myelin ([1]; 25 days of media containing AA (NCol-25, Col-25)): considerable increase
- ratio of myelin to neuronal growth (percentage of myelin) ([1]; longer exposures to AA, MBP, MAG, PO stains): increases

B1: CNTF: ciliary neurotrophic factor (protein, UniProt P26441 1-200, looked up)
Ciliary neurotrophic factor: MAFTEHSPLTPHRRDLCSRSIWLARKIRSDLTALTESYVKHQGLNKNINLDSADGMPVASTDQWSELTEAERLQENLQAYRTFHVLLARLLEDQQVHFTPTEGDFHQAIHTLLLQVAAFAYQIEELMILLEYKIPRNEADGMPINVGDGGLFEKKLWGLKVLQELSQWTVRSIHDLRFISSHQTGIPARGSHYIANNKKM
- retinal ganglion cell axon extension (Retinal explants): Observable retinal ganglion cell axon extension

B2: BDNF: brain-derived neurotrophic factor (protein, UniProt P23560 19-247, looked up)
Neurotrophic factor BDNF …: APMKEANIRGQGGLAYPGVRTHGTLESVNGPKAGSRGLTSLADTFEHVIEELLDEDQKVRPNEENNKDADLYTSRVMLSSQVPLEPPLLFLLEEYKNYLDAANMSMRVRRHSDPARRGELSVCDSISEWVTAADKKTAVDMSGGTVTVLEKVPVSKGQLKQYFYETKCNPMGYTKEGCRGIDKRHWNSQCRTTQSYVRALTMDSKKRIGWRFIRIDTSCVCTLTIKRGR
- retinal ganglion cell axon extension (Retinal explants): Observable retinal ganglion cell axon extension
